Measurements: patent publication US5424428A, “( -)-[[4-(1,4,5,6-tetrahydro-4-methyl-6-oxo-3-pyridazinyl)phenyl]-hydrazono]p r” (Orion-yhtyma Oy, priority 1991, dated 1995)
In brackets after ≈: the same amount, converted by molar mass.

Legend:
[1] = Water solubility in 67 mM phosphate buffer (pH 2); format: physicochemical
Method: The water solubility of (-) enantiomer and racemic mixture of
[[4-(1,4,5,6-tetrahydro-4-methyl-6-oxo-3-pyridazinyl)phenyl]-
hydrazono]propanedinitrite (l) in 67 mM phosphate buffer (pH 2).

[2] = test system: right ventricular papillary muscle of guinea-pig; experiment: Cardiotonic action in isolated, electrically paced, right ventricular papillary muscle; format: cell-based; conditions: for EC50: cardiotonic effect, guinea-pig papillary muscle, normal Tyrode's bath solution
Method: Cardiotonic action of the (-) and (+) enantiomers of [[4-(1,4,5,6-tetrahydro-4-methyl-6-oxo-3-pyridazinyl)phenyl]hydrazono]propanedinitrile (I) was studied in isolated, electrically paced, right ventricular papillary muscle of guinea-pig. Experiments were carried out in normal Tyrode's bath solution as described by Otani et al., Japan.

[3] = Bioavailability: concentration of total drug in dog plasma after single dose oral administration; format: in vivo
Method: FIG. 1 is a graph depicting the concentration of total [[4-(1,4,5,6-tetrahydro-4-methyl-6-oxo-3-pyridazinyl)phenyl]hydrazono]propanedinitrile in dog plasma over time after single dose oral administration of the racemate and the (-) enantiomer.
Concentration of total [[4-(1,4,5,6-tetrahydro-4-methyl-6-oxo-3-pyridazinyl)phenyl]hydrazono]propanedinitrile in dog plasma after single dose oral administration of the racemate (1 mg/kg) and (-)-enantiomer (0.5 mg/kg) is shown in FIG. 1. Curve A is for the (-)-enantiomer and curve B is for the racemic [[4-(1,4,5,6-tetrahydro-4-methyl-6-oxo-3-pyridazinyl)phenyl]hydrazono]propanedinitrile.

[4] = LD50 given intravenously to rats; conditions: rat, in vivo, intravenous

Row | SMILES | solubility ([1]; aqueous buffer, water solubility, 67 mM phosphate buffer (pH 2)) [µg/mL] | water solubility of the (-) enantiomer compared to the racemate ([1]; ratio (-) enantiomer / racemate) | EC50 [2] [µM] | potency of (-) enantiomer relative to (+) enantiomer ([2]; cardiotonic, ratio (-) vs (+) enantiomer) [times] | cardiotonic potency ([2]; result in words) | dose needed to produce the same plasma concentration level of the total drug substance, compared to racemate ([3]; dog, single dose oral, racemate 1 mg/kg, (-)-enantiomer 0.5 mg/kg, FIG. 1) | bioavailability compared to racemate ([3]; result in words) | LD50 [4] [mg/kg]
1 | CC1CC(=O)NN=C1c1ccc(NN=C(C#N)C#N)cc1 (single isomer, unassigned; (-)) [(-) enantiomer, (-)-[[4-(1,4,5,6-Tetrahydro-4-Methyl-6-Oxo-3-Pyridazinyl)phenyl]Hydrazono]Propanedinitrile] | 29 (≈ 103 µM) | over 30 fold | 0.06 | 47 | cardiotonic potency is predominantly due to the optically active (-) enantiomer | less than half dose is needed to produce the same plasma concentration level of the total drug substance | superior compared to racemate | 57
2 | CC1CC(=O)NN=C1c1ccc(NN=C(C#N)C#N)cc1 (single isomer, unassigned; (+)) [(+), (+)-[[4-(1,4,5,6-Tetrahydro-4-Methyl-6-Oxo-3-Pyridazinyl)phenyl]Hydrazono]Propanedinitrile] |  |  | 2.8 |  |  |  |  | 
